Read-outs that look alike come from different tables or passages of the source.
Legend:
Format in all cases: biochemical
PRMT1 = biological target: T1, PRMT1 (Homo sapiens, UniProt Q99873); experiment: SAHH-coupled fluorescence assay, inhibition of PRMT1
T1 construct: made in house
Description: (§1) A fluorescence-based SAHH-coupled assay was applied to study the inhibition activity of all synthesized compounds on PRMT 1 and 3.
(§2) The PRMT1 methylation assay was performed under the following conditions in a final well volume of 100 μL: 2.5 mM HEPES (pH=7.0), 25 mM NaCl, 25 μM EDTA, 50 μM TCEP, 0.01% Triton X-100, 5 μM SAHH, 0.1 μM PRMT1, 10 μM AdoMet, and 10 μM ThioGlo4. […] The fluorescence signal was monitored on a BMG CLARIOstar microplate reader with excitation at 400 nm and emission at 465 nm for 15 min. Data were processed using GraphPad Prism software 8.0.
(§3) Next, the inhibition activity of the library was investigated for five PRMT members from type I PRMTs.
as §2, with “A fluorescence-based SAHH-coupled assay was applied to determine the inhibition activity of all synthesized compounds on PRMT 1 and 3. The PRMT1” for “The PRMT1”, “software 8.0. All experiments were performed in duplicate.” for “software 8.0.”

PRMT4 = biological target: T2, PRMT4 (Homo sapiens, UniProt Q86X55); experiment: radioactive assay (Reaction Biology Corp.), inhibition of PRMT4
T2 sequence (Q86X55 1-608): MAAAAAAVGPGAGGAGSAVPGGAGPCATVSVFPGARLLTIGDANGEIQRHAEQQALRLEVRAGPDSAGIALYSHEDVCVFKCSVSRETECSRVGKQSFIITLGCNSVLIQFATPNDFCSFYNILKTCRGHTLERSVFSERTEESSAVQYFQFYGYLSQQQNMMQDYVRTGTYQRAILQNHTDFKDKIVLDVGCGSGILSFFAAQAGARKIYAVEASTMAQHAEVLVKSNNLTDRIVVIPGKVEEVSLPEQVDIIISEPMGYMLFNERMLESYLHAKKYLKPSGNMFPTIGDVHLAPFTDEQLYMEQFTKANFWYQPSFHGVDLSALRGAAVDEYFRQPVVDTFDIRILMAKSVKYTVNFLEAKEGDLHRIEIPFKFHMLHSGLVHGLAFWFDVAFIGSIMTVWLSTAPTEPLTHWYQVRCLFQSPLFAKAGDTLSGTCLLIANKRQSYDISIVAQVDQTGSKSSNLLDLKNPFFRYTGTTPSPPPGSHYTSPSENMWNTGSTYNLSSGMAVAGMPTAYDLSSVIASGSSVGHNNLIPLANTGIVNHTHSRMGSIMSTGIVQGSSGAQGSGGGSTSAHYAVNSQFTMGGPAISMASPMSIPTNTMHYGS
Description: as §3
(§4) The PRMT 4, 6 and 8 methylation assays were performed by Reaction Biology corp.

PRMT6 = PRMT6 (Homo sapiens, UniProt Q96LA8); experiment: radioactive assay (Reaction Biology Corp.), inhibition of PRMT6
Sequence of PRMT6 (Q96LA8 whole entry, species assumed): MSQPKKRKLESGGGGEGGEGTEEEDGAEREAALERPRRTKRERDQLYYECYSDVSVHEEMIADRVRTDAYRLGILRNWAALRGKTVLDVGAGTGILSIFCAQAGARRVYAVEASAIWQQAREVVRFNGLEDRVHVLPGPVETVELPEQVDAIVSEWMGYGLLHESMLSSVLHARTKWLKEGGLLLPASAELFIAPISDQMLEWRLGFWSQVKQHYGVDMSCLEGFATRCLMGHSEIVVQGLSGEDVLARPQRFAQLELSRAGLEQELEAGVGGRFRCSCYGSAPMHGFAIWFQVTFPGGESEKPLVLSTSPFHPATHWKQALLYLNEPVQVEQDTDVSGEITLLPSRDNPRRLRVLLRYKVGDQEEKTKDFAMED
Description: as §3, §4

PRMT8 = PRMT8 (Homo sapiens, UniProt Q9NR22); experiment: radioactive assay (Reaction Biology Corp.), inhibition of PRMT8
Sequence of PRMT8 (Q9NR22 whole entry, species assumed): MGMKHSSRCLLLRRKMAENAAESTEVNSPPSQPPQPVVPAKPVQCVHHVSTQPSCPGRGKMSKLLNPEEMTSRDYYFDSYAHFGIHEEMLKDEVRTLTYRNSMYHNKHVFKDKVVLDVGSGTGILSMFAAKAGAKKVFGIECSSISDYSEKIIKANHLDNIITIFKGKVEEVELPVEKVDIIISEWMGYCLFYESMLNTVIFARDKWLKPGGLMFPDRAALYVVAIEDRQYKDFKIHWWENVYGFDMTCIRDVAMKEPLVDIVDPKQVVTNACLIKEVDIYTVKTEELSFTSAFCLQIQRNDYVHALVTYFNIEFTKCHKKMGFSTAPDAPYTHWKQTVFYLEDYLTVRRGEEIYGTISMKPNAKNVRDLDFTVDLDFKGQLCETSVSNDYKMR
Description: as §3, §4

PRMT3 = PRMT3 (Homo sapiens, UniProt O60678); experiment: SAHH-coupled fluorescence assay, inhibition of PRMT3; parameters: PRMT3 (residues 211-531) was cloned into the pET28a-MHL expression vector; tag of the pET28a-MHL vector (not described); made in house; host or cells: Escherichia coli BL21(DE3)
Sequence of PRMT3 (O60678 211-531): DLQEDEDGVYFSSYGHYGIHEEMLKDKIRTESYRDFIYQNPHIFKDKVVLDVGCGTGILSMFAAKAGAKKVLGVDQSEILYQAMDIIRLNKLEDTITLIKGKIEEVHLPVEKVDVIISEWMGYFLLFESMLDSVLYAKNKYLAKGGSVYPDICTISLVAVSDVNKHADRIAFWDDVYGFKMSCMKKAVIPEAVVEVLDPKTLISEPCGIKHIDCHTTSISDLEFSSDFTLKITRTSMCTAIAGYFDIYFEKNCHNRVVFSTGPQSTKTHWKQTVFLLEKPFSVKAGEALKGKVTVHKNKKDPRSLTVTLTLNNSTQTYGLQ
Description: as §1
(§5) The PRMT3 methylation assay was performed under the following conditions in a final well volume of 100 μL: 20 mM Tris (pH=7.5), 0.01% Triton X-100, 5 μM SAHH, 0.25 μM PRMT3, 30 μM AdoMet, and 15 μM ThioGlo4. […] Fluorescence was monitored on a BMG CLARIOstar microplate reader with excitation 380 nm and emission 505 nm. Data were processed by using GraphPad Prism software 8.0. All experiments were performed in duplicate.
as §3
as §5, with “8.0.” for “8.0. All experiments were performed in duplicate.”

T1 sequence (Q99873 whole entry, species assumed): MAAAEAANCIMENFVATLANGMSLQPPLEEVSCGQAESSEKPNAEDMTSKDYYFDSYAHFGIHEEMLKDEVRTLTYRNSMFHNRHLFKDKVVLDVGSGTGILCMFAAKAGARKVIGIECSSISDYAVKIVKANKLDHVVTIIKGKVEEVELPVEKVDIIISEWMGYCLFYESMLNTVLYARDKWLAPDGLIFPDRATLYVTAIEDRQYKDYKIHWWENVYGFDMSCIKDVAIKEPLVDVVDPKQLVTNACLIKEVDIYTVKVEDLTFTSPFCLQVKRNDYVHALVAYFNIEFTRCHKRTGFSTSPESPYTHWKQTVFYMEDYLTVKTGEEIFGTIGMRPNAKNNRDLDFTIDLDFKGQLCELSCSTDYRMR

SMILES	inhibition at 10 µM (PRMT1) [%]	IC50 (PRMT1; read-out: IC50 FOR PRMT1) [µM]	inhibition at 10 µM (PRMT4) [%]	inhibition at 10 µM (PRMT6) [%]	inhibition at 10 µM (PRMT8) [%]	inhibition at 10 µM (PRMT3) [%]	IC50 (PRMT1; read-out: IC50[μM] | PRMT1) [µM]	PRMT4 inhibition (PRMT4)	PRMT1 inhibition (PRMT1)
N=C(NCCCSC[C@H]1O[C@@H](n2cnc3c(NCCCc4ccccc4)ncnc32)[C@H](O)[C@@H]1O)NCC1CCC1 [Compound 1-89]	80	0.59 ± 0.073	44	90	85	7	–	–	–
N=C(NCCCO)NCCCSC[C@H]1O[C@@H](n2cnc3c(NCCCc4ccccc4)ncnc32)[C@H](O)[C@@H]1O [Compound 1-92]	64	0.59 ± 0.073	54	84	55	10	–	–	–
N=C(NCCSC[C@H]1O[C@@H](n2cnc3c(N)ncnc32)[C@H](O)[C@@H]1O)Nc1ccccc1 [Compound 5b]	73	–	–	75	66	1	3 ± 0.16	–	–
N=C(NCCCSC[C@H]1O[C@@H](n2cnc3c(N)ncnc32)[C@H](O)[C@@H]1O)NCc1ccccc1 [Compound 5e]	95	–	97	98	97	61	0.21 ± 0.0066	–	–
N=C(NCCCSC[C@H]1O[C@@H](n2cnc3c(N)ncnc32)[C@H](O)[C@@H]1O)Nc1cccc(-c2ccoc2)c1 [Compound 6i]	95	–	100	95	98	46	–	–	–
N=C(NCCCSC[C@H]1O[C@@H](n2cnc3c(N)ncnc32)[C@H](O)[C@@H]1O)Nc1cccc(-c2cccc([N+](=O)[O-])c2)c1 [Compound 6p]	93	–	100	98	100	0	–	–	–
N=C(NCCCSC[C@H]1O[C@@H](n2cnc3c(N)ncnc32)[C@H](O)[C@@H]1O)Nc1cccc(-c2n[nH]cc2C(F)(F)F)c1 [Compound 6q]	99	–	100	98	100	60	–	–	–
Nc1ncnc2c1ncn2[C@@H]1O[C@H](CSCCNC(=O)NCCCc2ccccc2)[C@@H](O)[C@H]1O [Compound 7b, 1-(2-((((2S,3S,4R,5R)-5-(6-amino-9H-purin-9-yl)-3,4-dihydroxytetrahydrofuran-2-yl)methyl)thio)ethyl)-3-(3-phenylpropyl)urea]	13	–	49	7	-4	5	–	–	–
Nc1ncnc2c1ncn2[C@@H]1O[C@H](CSCCNC(=O)NCCc2ccccc2)[C@@H](O)[C@H]1O [Compound 7c, 1-(2-((((2S,3S,4R,5R)-5-(6-amino-9H-purin-9-yl)-3,4-dihydroxytetrahydrofuran-2-yl)methyl)thio)ethyl)-3-phenethylurea]	8	–	53	22	-1	6	–	–	–
Nc1ncnc2c1ncn2[C@@H]1O[C@H](CSCCNC(=O)NCc2ccc3cnccc3c2)[C@@H](O)[C@H]1O [Compound 7e]	6	–	30	9	-2	8	–	–	–
CCNC(=O)NCCSC[C@H]1O[C@@H](n2cnc3c(N)ncnc32)[C@H](O)[C@@H]1O [Compound 7g, 1-(2-((((2S,3S,4R,5R)-5-(6-amino-9H-purin-9-yl)-3,4-dihydroxytetrahydrofuran-2-yl)methyl)thio)ethyl)-3-ethylurea]	10	–	27	3	14	4	–	–	–
Nc1ncnc2c1ncn2[C@@H]1O[C@H](CSCCNC(=O)NC2CCCCC2)[C@@H](O)[C@H]1O [Compound 7i, 1-(2-((((2S,3S,4R,5R)-5-(6-amino-9H-purin-9-yl)-3,4-dihydroxytetrahydrofuran-2-yl)methyl)thio)ethyl)-3-cyclohexylurea]	6	–	34	-12	-10	2	–	–	–
Nc1ncnc2c1ncn2[C@@H]1O[C@H](CSCCNC(=O)Nc2ccccc2Br)[C@@H](O)[C@H]1O [Compound 7m]	10	–	81	11	13	55	–	–	–
Nc1ncnc2c1ncn2[C@@H]1O[C@H](CSCCCNC(=O)NCc2ccc3c(c2)OCO3)[C@@H](O)[C@H]1O [Compound 7o]	5	–	42	89	7	5	–	–	–
Nc1ncnc2c1ncn2[C@@H]1O[C@H](CSCCCNC(=O)NCCCc2ccccc2)[C@@H](O)[C@H]1O [Compound 7q]	18	–	62	-6	16	5	–	–	–
Nc1ncnc2c1ncn2[C@@H]1O[C@H](CSCCCNC(=O)NCCc2ccccc2)[C@@H](O)[C@H]1O [Compound 7r]	14	–	47	49	22	6	–	–	–
N=C(NCCCSC[C@H]1O[C@@H](n2cnc3c(N)ncnc32)[C@H](O)[C@@H]1O)Nc1cccc(F)c1 [Compound 7s]	23	–	58	49	-12	9	–	–	–
Nc1ccc(-c2ccc(CNC(=O)NCCSC[C@H]3O[C@@H](n4cnc5c(N)ncnc54)[C@H](O)[C@@H]3O)cc2)cc1 [Compound 8a]	13	–	40	72	0	3	–	–	–
Nc1ncnc2c1ncn2[C@@H]1O[C@H](CSCCNCc2cccc(Br)c2)[C@@H](O)[C@H]1O [Compound 9a]	11	–	–	58	47	8	–	–	–
N=C(NCCCN(CCNC(=O)NCc1ccccc1)C[C@H]1O[C@@H](n2cnc3c(N)ncnc32)[C@H](O)[C@@H]1O)NC1CCCC1 [YD1289]	–	–	–	–	–	–	–	selective and potent PRMT4 inhibitor	–
Nc1ncnc2c1ncn2[C@@H]1O[C@H](CN(CCCNCc2cccc(-c3ccc(Cl)cc3)c2)CCNC(=O)NCc2ccccc2)[C@@H](O)[C@H]1O [YD1305]	–	–	–	–	–	–	–	potent and selective PRMT4 inhibitors	–
Nc1ncnc2c1ncn2[C@@H]1O[C@H](CN(CCCNCc2cccc(Br)c2)CCNC(=O)NCc2ccccc2)[C@@H](O)[C@H]1O [YD1349]	–	–	–	–	–	–	–	potent and selective PRMT4 inhibitors	–
N=C(NCCCSCC1CC(n2ccc3c(NCCCc4ccccc4)ncnc32)C(O)C1O)Nc1cccc(Br)c1 (centres unmarked) [YD1375]	–	–	–	–	–	–	–	–	inhibitory effect of YD1375 on PRMT1

From patent US20260306527A1, “PRMT INHIBITOR COMPOUNDS AND THE USES THEREOF” (Purdue Research Foundation, priority 2023, published 2026)
